Data taken from patent publication US8932614B2, “Incorporation of particulate ceragenins in polymers” (priority 2011, dated 2015).

Legend:
biofilms = experiment: Coated bone plates implanted into animals and challenged with biofilms; assay type: in vivo, sheep; settings: CSA-13 coated stainless steel plates
Excerpt: Similar results were obtained in vivo when bone plates were coated with ceragenin-containing composites and were compared with bone plates coated with polymer only, then implanted into animals and challenged with biofilms. […] In contrast, 100% of animals who received polymer-only bone plates developed infection when they were infected with biofilms and bacterial loads in and around the infection site exceeded 10^6 bacterial cells per gram of tissue, which is well above the standard for infection.
In addition, histological sections were compared from animals receiving bone plates. […] Two sheep in Group 1 were euthanized after one week due to the severity of their infections. […] And while inflammation was present in sheep from all groups, with the highest level of inflammation being present in Group 1 sheep, this is a normal response to surgical trauma.

MRSA = experiment: Coated titanium bone plugs in broth challenged with MRSA (planktonic, FIG. 4); assay type: cell-based, methicillin-resistant Staphylococcus aureus; settings: for viable bacteria per tube: 4 and 8 hour time points, challenge ~5×10^8 CFU MRSA; for viable bacteria: 24 hour time point
Method: To confirm that medical devices coated with the ceragenin-containing composites described herein are able to kill bacteria, various groups of titanium bone plugs were prepared. The titanium bone plugs were either uncoated, coated with MED-6607 ceragenin-containing silicone polymer prepared as described above, or with MED-6607 silicone polymer only. In the groups of bone plugs that were coated with ceragenin-containing silicone polymer, the silicone either contained 16 wt %, 18 wt %, or 20 wt % ceragenin. Specifically, the groups of bone plugs were as follows: • 0%—a titanium bone plug coated with silicone polymer with no ceragenin • 16%—a titanium bone plug coated with silicone polymer containing 16% CSA-13 (w/w) • 18%—a titanium bone plug coated with silicone polymer containing 18% CSA-13 (w/w) • […] • titanium—a titanium bone plug with no coating
The bone plugs were placed into broth (e.g., 30 ml of broth) and challenged with ˜5×10^8 colony forming units (CFU) of MRSA. In addition, a broth/MRSA-only control was prepared. Samples were withdrawn from each of the tubes at 0, 1, 2, 4, 8, 24, and 48 hours. The data for the 0, 1, 2, 4, 8, and 24 hour data points are graphed in FIG. 4.
In contrast, the 16% tubes each contained about 1×10^3 CFU and the 20% tubes each contained about 5×10^2 CFU.

SMILES: CCCCCCCCNCCC[C@@H](C)[C@H]1CC[C@H]2[C@@H]3[C@H](OCCCN)C[C@@H]4C[C@H](OCCCN)CC[C@]4(C)[C@H]3C[C@H](OCCCN)[C@]12C [CSA-13]
- sheep showing signs of osteomyelitis (histology) (biofilms; Group 2 (n=9): biofilm): none
- sheep showing signs of osteomyelitis (histology) (biofilms; Group 4 (n=8): no biofilm): none
- viable bacteria per tube (MRSA; bone plug coated with silicone containing 16% CSA-13 (w/w)): about 1×10^3 CFU
- viable bacteria (MRSA; bone plug coated with silicone containing 16% CSA-13): considerable numbers of viable bacteria
- viable bacteria per tube (MRSA; bone plug coated with silicone containing 18% CSA-13 (w/w)): essentially no viable bacterial
- viable bacteria per tube (MRSA; bone plug coated with silicone containing 20% CSA-13 (w/w)): about 5×10^2 CFU
- viable bacteria (MRSA; bone plug coated with silicone containing 20% CSA-13, compared with 18%): caught up to the 18
- numbers of viable bacteria (CFU/ml) over time (MRSA; tubes containing a bone plug with CSA-13 (16%, 18% and 20%), 0-24 h): dropped dramatically
